{"source": "paper PMC7804859", "about": "“A metabolically stable apelin-17 analog decreases AVP-induced antidiuresis and improves hyponatremia” (Nature Communications, 2021)", "key": {"[1]": {"system": "normonatremic Sprague-Dawley rats", "test": "Blood and urine chemistry after 4 days of s.c. administration in rats", "assay_type": "in vivo, rat", "parameters": "Plasma glucose: unit not given beside the values; Blood urea nitrogen / 24h Urine glucose: unit not given here", "description": "Fractional excretion of water (in %) was calculated using the following formula: (plasma creatinine/urine creatinine) × 100. Fractional excretion of sodium (in %) was calculated using the following formula: (plasma creatinine × urine sodium/urine creatinine × plasma sodium) × 100. Blood and urine creatinine, urea nitrogen, and glucose levels were determined using an AU5800 Beckman Coulter chemistry analyzer (Beckman Coulter, Villepinte, France)."}, "anti-K17F serum": {"biological_target": "anti-K17F serum", "test": "Inhibition of [125I]-pE13F binding to anti-K17F serum (apelin RIA, cross-reactivity)", "parameters": "species or system rabbit", "details": "read-out: IC50, recognition by antibody directed against K17F, antiserum 1/4500", "description": "The columns were then treated as described in\nSamples (0.1ml) w ere mixed with 125I-\n212 used this radioligand instead of [Glp65, Nle75, Tyr77] [125I]-apelin13 since the substitution of\n214 derivatives as described previously by 3,4.\n216 incubated for 10 min at room temperature.\nThis antiserum identified the apelin present in the\nMost of the apelin in human plasma was […]"}, "mpkCCD cells": {"system": "mpkCCD cells", "test": "Forskolin-induced cAMP production in mpkCCD cells", "assay_type": "cell-based, mouse", "description": "(§1) 152 Supplementary Methods\n(§2) 154 We quantified cAMP production with the cAMP dynamic 2 assay kit (Cisbio Bioassays,\n(§3) 155 Codolet, France), which is based on homogeneous time-resolved fluorescence (HTRF)\n(§4) 156 technology, as previously described 1. For cells expressing the Apelin-R, 2000 CHO cells/well\n(§5) 157 stably expressing rat apelinR-EGFP (clone B70) were added to the 384-well plate and\n158 stimulated with 5 µmol/l forskolin (FSK) and various concentrations (0.01 pmol/l to 100\nFor cells expressing the V2-R, HEK-\n160 293T cells were transiently transfected with the human V2-R (cDNA Resource Center), after\n161 48h, 4000 cells/well were added to white 384-well optiplates and stimulated either with 5\n(§6) Cells were then lysed, and\n(§7) 165 cAMP levels were determined in accordance with the kit manufacturer’s instructions.\n(§8) 166 Stimulation was performed in stimulation buffer-IBMX (SBI) (Hank’s balanced salt solution\n(§9) 167 (HBSS-Life Technology), 5 mmol/l Hepes, 0.1% BSA stabilizer (Perkin Elmer), 1 mmol/l\n168 isobutylmethylxanthine (IBMX, Sigma Aldrich, pH 7.4)). For cAMP assay with mpkCCD\n169 cells, the cells were grown on 12 mm Transwell filters (0.4 μm pore size, Corning Costar,\n170 Cambridge, MA) until they reach confluency (4-5 days). For forskolin experiments, culture\n171 media was replaced with SBI in apical and basolateral compartments. After 30 min of […]"}, "[2]": {"system": "normonatremic Sprague-Dawley rats", "test": "Effects of s.c. administration on metabolic parameters in normonatremic rats", "assay_type": "in vivo, rat"}, "[3]": {"system": "phosphorylated AQP-2 in mpkCCD cells", "test": "dDAVP-induced phosphorylation of AQP-2 in mpkCCD cells (immunofluorescence)", "assay_type": "cell-based, mouse", "details": "10 µmol/l compound with 10 nmol/l dDAVP, 1 h", "experimental": "mpkCCD cells were seeded in 12 mm Transwell filters of 0.4 μm pore size at a density of 160,000 cells/cm^2 and were grown for 5 days. Twenty-four hours before the experiment, cells were starved with depletion media (1:1 (vol/vol) Ham’s F12:DMEM medium). […] The cell culture medium was removed and cells were fixed with 4% formaldehyde in 1× PBS for 10 min at 4 °C, and permeabilized with 0.5% PBS Triton X-100 for 5 min at 20 °C. Then, inserts were incubated in 5% PBS-BSA for 60 min at 20 °C to block non-specific protein binding. Inserts were subjected to immunostaining with a rabbit anti-AQP-2-pS269 antibody (dilution, 1/200, Phospho Solution, Cliniscience, France) and a mouse monoclonal anti-occludin antibody (dilution, 1/200, Santa Cruz, Cliniscience, France) for 16 h at 4 °C. Inserts were then incubated with goat anti-rabbit Alexa Fluor Plus 647 or goat anti-mouse Alexa Fluor plus 488 secondary antibodies (dilution, 1/500, Invitrogen) for 60 min at 20 °C. […] Slides were analyzed in the x–y and x–z axes under a ×63/1.4 Oil WD: 0.17 mm objective with a Zeiss Axioobserver Z1 inverted spinning-disk microscope equipped with a camera sCMOS Hamamatsu 2048 × 2048/pixel size: 6.45 × 6.45 µm^2 and the lasers (405 nm; 100 mW, 491 nm; 150 mW and 642 nm; 100 mW). […]"}, "rat apelin-R": {"biological_target": "T1, rat apelin-R (Rattus norvegicus, UniProt Q9JHG3)", "T1 construct": "expressed in transfected cells; membrane preparation", "T1 sequence (Q9JHG3 1-377)": "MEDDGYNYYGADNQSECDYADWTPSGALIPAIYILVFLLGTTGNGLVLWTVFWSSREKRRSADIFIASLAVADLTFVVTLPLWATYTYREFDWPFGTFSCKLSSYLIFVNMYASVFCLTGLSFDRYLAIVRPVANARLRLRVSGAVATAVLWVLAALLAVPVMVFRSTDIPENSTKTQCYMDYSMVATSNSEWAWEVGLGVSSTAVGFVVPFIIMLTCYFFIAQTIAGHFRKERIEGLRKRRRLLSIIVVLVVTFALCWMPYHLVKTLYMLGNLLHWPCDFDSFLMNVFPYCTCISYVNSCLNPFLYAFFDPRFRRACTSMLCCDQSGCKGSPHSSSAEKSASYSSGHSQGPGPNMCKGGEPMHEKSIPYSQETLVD", "test": "Radioligand binding ([125I]-pE13F) to membranes from CHO cells stably expressing rat apelin-R-EGFP", "details": "1 h 20 °C, pH 7.4, new batch of LIT01-196", "experimental": "Membranes from CHO cells stably expressing rat apelin-R-EGFP were prepared as previously described[23]. […] The reaction was stopped by adding ice-cold binding buffer and filtering through Whatman GF/C filters. The filters were washed and radioactivity was counted with a Wizard 1470 Wallac gamma counter (PerkinElmer, Turku, Finland)."}, "rat apelin-R-EGFP": {"biological_target": "T2, rat apelin-R-EGFP (Rattus norvegicus, UniProt Q9JHG3)", "T2 construct": "expressed in transfected cells", "T2 sequence (Q9JHG3 1-377)": "T1 sequence (Q9JHG3 1-377)", "test": "Inhibition of forskolin-induced cAMP production in CHO cells stably expressing rat apelin-R-EGFP (HTRF)", "assay_type": "cell-based", "details": "5 µmol/l forskolin, 30 min 20 °C", "description": "as §1, §2, §3, §4, §5\n158 stimulated with 5 µmol/l forskolin (FSK) and various concentrations (0.01 pmol/l to 100 […]\nas §6, §7, §8, §9\n168 isobutylmethylxanthine (IBMX, Sigma Aldrich, pH 7.4)). […]"}, "[4]": {"details": "900 nmol/kg SC (tolvaptan 0.4.SC [sic]), normonatremic rats, single animals"}}, "note": "“And” between values parts separate entries of the source, which are not always exact repeats. Equal values may be shown once."}
{"smiles": "CSCC[C@H](NC(=O)[C@@H]1CCCN1C(=O)CNC(=O)[C@H](CCCCN)NC(=O)[C@H](Cc1c[nH]cn1)NC(=O)[C@H](CO)NC(=O)[C@H](CC(C)C)NC(=O)[C@H](CCCNC(=N)N)NC(=O)[C@@H]1CCCN1C(=O)[C@H](CCCNC(=N)N)NC(=O)[C@H](CCC(N)=O)NC(=O)[C@H](CCCNC(=N)N)NC(=O)[C@H](CCCNC(=N)N)NC(=O)[C@H](Cc1ccccc1)NC(=O)[C@H](CCCCN)NC(=O)CCC(F)(F)C(F)(F)C(F)(F)C(F)(F)C(F)(F)C(F)(F)C(F)(F)C(F)(F)F)C(=O)N1CCC[C@H]1C(=O)N[C@@H](Cc1ccccc1)C(=O)O", "note": "[LIT01-196]", "values": [{"measurement": "Plasma creatinine", "setting": "[1]; 900 nmol/kg SC, individual animals (Fig. S5G source data)", "value": "21 and 24 and 22"}, {"measurement": "Blood urea nitrogen", "setting": "[1]; 900 nmol/kg SC, individual animals (Fig. S5H source data)", "value": "7 and 8 and 5.6 and 6.8 and 6.1"}, {"measurement": "Plasma potassium", "setting": "[1]; 900 nmol/kg SC, individual animals (Fig. S5J source data)", "value": "4.54 and 4.76 and 5.03 and 4.26 and 4.35"}, {"measurement": "Plasma glucose", "setting": "[1]; 900 nmol/kg SC, individual animals (Fig. S5K source data)", "value": "8.1 and 9.1 and 7.4 and 8 and 7.6"}, {"measurement": "24h Urine glucose", "setting": "[1]; 900 nmol/kg SC, individual animals (Fig. S5L source data)", "value": "0.04364 and 0.0331 and 0.0123 and 0"}, {"measurement": "blood creatinine, urea nitrogen, sodium, and potassium levels", "setting": "[1]; 900 nmol/kg s.c. for 4 days, rats", "value": "not changed"}, {"measurement": "plasma or urine glucose levels", "setting": "[1]; repeated 900 nmol/kg s.c., normonatremic rats", "value": "not associated with a change"}, {"measurement": "IC50", "setting": "anti-K17F serum", "value": "0.56 ± 0.04", "unit": "nM"}, {"measurement": "inhibition of cAMP production induced by forskolin", "setting": "mpkCCD cells; 1 µmol/l compound, forskolin 1 µmol/l, mpkCCD cells, 30 min 37 °C", "value": 32, "unit": "%"}, {"measurement": "Forskolin-induced cAMP production, value (Fig 2C)", "setting": "mpkCCD cells; Forskolin + peptide, single measurements", "value": 89}, {"measurement": "Urine osmolality (3 hours)", "setting": "[2]; [4]", "value": "1384 and 748 and 940 and 740 and 756 and 732"}, {"measurement": "Urine osmolality (6 hours)", "setting": "[2]; [4]", "value": "356 and 1028 and 440 and 1112 and 752 and 680"}, {"measurement": "Urine osmolality (24 hours)", "setting": "[2]; [4]", "value": "1095 and 2308 and 2437 and 1605 and 969 and 1304 and 1184 and 540 and 808 and 632 and 904 and 972 and 1020 and 1112 and 960 and 572 and 760 and 772 and 928 and 708 and 1220 and 1508"}, {"measurement": "body weight change (weight loss)", "setting": "[2]; 900 nmol/kg s.c., 24 h", "value": "−1.8", "unit": "%"}, {"measurement": "increase in water intake", "setting": "[2]; 900 nmol/kg s.c., 24 h", "value": 11, "unit": "%"}, {"measurement": "increase in water intake to food intake ratio", "setting": "[2]; 900 nmol/kg s.c., 24 h", "value": 50, "unit": "%"}, {"measurement": "increase in free water excretion fraction", "setting": "[2]; 900 nmol/kg s.c., 24 h, n = 6", "value": 86, "unit": "%"}, {"measurement": "decrease in food (normal chow) intake", "setting": "[2]; 900 nmol/kg s.c., 24 h, non-significant", "value": 20, "unit": "%"}, {"measurement": "increase in 24-h urine output relative to saline", "setting": "[2]; 900 nmol/kg s.c., normonatremic rats", "value": 79, "unit": "%"}, {"measurement": "decrease in urine osmolality", "setting": "[2]; 900 nmol/kg s.c., normonatremic rats, 24 h", "value": 52, "unit": "%"}, {"measurement": "Water excretion fraction", "setting": "[2]; LIT01-196 900 nmol/kg SC, individual animals (Fig. S4C source data)", "value": "0.8192 and 1.335 and 0.9524 and 0.95 and 0.8692 and 1.016"}, {"measurement": "Sodium excretion fraction", "setting": "[2]; LIT01-196 900 nmol/kg SC, individual animals (Fig. S4D source data)", "value": "0.6321 and 0.5196 and 0.512 and 0.526 and 0.4023 and 0.292"}, {"measurement": "Sodium excretion fraction", "setting": "[2]; LIT01-196 900 nmol/kg, tolvaptan 6700 nmol/kg s.c., 24 h", "value": "not changed"}, {"measurement": "Water to food ratio", "setting": "[2]; normonatremic rats, 900 nmol/kg SC, individual animal values (source data Fig. 4L)", "value": "1.9011 and 2.746 and 2.674 and 1.755 and 1.9235 and 1.556 and 1.545"}, {"measurement": "phosphorylation of AQP-2 (phospho-AQP-2 immunolabelling)", "setting": "[3]", "value": "decrease in the phosphorylation of AQP-2"}, {"measurement": "Ki", "setting": "rat apelin-R", "value": "0.34 ± 0.05", "unit": "nM"}, {"measurement": "IC50", "setting": "rat apelin-R-EGFP", "value": "1.7 ± 0.5", "unit": "nM"}]}
